# Results: patent US6747023B1 (Daiichi Pharmaceutical Co., Ltd., priority 1998, dated 2004)
# Structures can show the parent of a compound that is named as a salt.
# Target: T1, human FXa (Homo sapiens, UniProt P00742)
# T1 construct: purchased Cosmobio-ERL HFXa-1011
# Test: Measurement of FXa inhibitory action (IC50)
# Format: biochemical
# Conditions: 0.05 U/ml human FXa, substrate S2222, absorbance at 405 nm, room temperature; read-out: Concentration (nM) of the sample at which 50% of Fxa activity is inhibited
# Method: Measurement of FXa Inhibitory Action (IC50)
# From the below-described equation, an inhibitory ratio % of each sample was determined.
# Inhibitory ratio (%)=(1−OD of sample÷OD of control)×100
# T1 sequence (P00742 235-488 limits assumed): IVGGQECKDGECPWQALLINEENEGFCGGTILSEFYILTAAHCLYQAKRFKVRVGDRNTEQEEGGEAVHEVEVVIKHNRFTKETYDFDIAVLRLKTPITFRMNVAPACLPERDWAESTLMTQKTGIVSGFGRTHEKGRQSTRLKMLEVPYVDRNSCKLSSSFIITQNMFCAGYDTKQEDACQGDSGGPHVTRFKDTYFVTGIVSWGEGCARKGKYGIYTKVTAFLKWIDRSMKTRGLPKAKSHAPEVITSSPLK
# T1 sequence (P00742 41-179 partner limits assumed): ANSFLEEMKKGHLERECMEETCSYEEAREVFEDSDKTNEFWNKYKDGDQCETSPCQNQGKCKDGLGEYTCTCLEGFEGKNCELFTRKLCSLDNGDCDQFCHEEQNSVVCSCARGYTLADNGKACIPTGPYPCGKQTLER
row,IC50 [nM],Compound
1,14,"O=C(c1cnc(-c2cc[n+]([O-])cc2)nc1)N1CCN(S(=O)(=O)c2cc3cc(Cl)ccc3[nH]2)CC1 [Example A-135, 4-[5-[[4-[(5-Chloroindol-2-yl)sulfonyl]piperazin-1-yl]carbonyl]pyrimidin-2-yl]pyridine N-oxide]"
2,38,"O=C(c1ccc(-c2ccnc(CO)c2)cc1)N1CCN(S(=O)(=O)c2ccc3cc(Cl)ccc3c2)CC1 [Example A-152, 1-[(6-Chloronaphthalen-2-yl)sulfonyl]-4-[4-(2-hydroxymethylpyridin-4-yl)benzoyl]piperazine]"
3,28,"NCc1cc(-c2ccc(C(=O)N3CCN(S(=O)(=O)c4ccc5cc(Cl)ccc5c4)CC3)cc2)ccn1 [Example A-155, 1-[4-(2-Aminomethylpyridin-4-yl)benzoyl]-4-[(6-chloronaphthalen-2-yl)sulfonyl]piperazine hydrochloride]"
4,10,"NC(=O)C[C@@H]1CN(S(=O)(=O)c2ccc3cc(Cl)ccc3c2)C[C@H](CC(N)=O)N1C(=O)c1ccc(-c2ccncc2)cc1 [Example A-173, cis-2,6-Bis(carbamoylmethyl)-4-[(6-chloronaphthalen-2-yl)sulfonyl]-1-[4-(pyridin-4-yl)benzoyl]piperazine]"
5,4.7,"O=C(c1ncc(-c2cccc[n+]2[O-])cn1)N1CCN(S(=O)(=O)c2cc3cc(Cl)ccc3[nH]2)CC1 [Example A-183, 2-[2-[[4-[(5-Chloroindol-2-yl)sulfonyl]piperazin-1-yl]carbonyl]pyrimidin-5-yl]pyridine N-oxide]"
6,6.3,"O=C(c1ncc(-c2cccc[n+]2[O-])cn1)N1CCN(S(=O)(=O)c2cc3ccc(Cl)cc3s2)CC1 [Example A-185, 2-[2-[[4-[(6-Chlorobenzo[b]thien-2-yl)sulfonyl]piperazin-1-yl]carbonyl]pyrimidin-5-yl]pyridine N-oxide]"
7,1.9,"Cc1cc(-c2cnc(C(=O)N3CCN(S(=O)(=O)c4cc5cc(Cl)ccc5[nH]4)CC3)nc2)ccn1 [Example A-186, 1-[(5-Chloroindol-2-yl)sulfonyl]-4-[[5-(2-methylpyridin-4-yl)pyrimidin-2-yl]carbonyl]piperazine]"
8,7.6,"CCC1CN(S(=O)(=O)c2cc3cc(Cl)ccc3[nH]2)CCN1C(=O)c1ncc(-c2cccc[n+]2[O-])cn1 (stereo not shown) [Example A-224, 2-[2-[[4-[(5-Chloroindol-2-yl)sulfonyl]-2-ethylpiperazin-1-yl]carbonyl]pyrimidin-5-yl]pyridine N-oxide]"
9,1.6,"Cc1cc(-c2cnc(C(=O)N3CCN(S(=O)(=O)c4cc5cc(Cl)ccc5[nH]4)CC3)s2)cc[n+]1[O-] [Example A-229, 4-[2-[[4-[(5-Chloroindol-2-yl)sulfonyl]piperazin-1-yl]carbonyl]thiazol-5-yl]-2-methylpyridine N-oxide]"
10,2.3,"C#Cc1ccc2[nH]c(S(=O)(=O)N3CCN(C(=O)c4ncc(-c5cc[n+]([O-])cc5)s4)CC3)cc2c1 [Example A-231, 4-[2-[[4-[(5-Ethynylindol-2-yl)sulfonyl]piperazin-1-yl]carbonyl]thiazol-5-yl]pyridine N-oxide]"
11,3.5,"O=C(c1ncc(-c2cc[n+]([O-])cc2)s1)N1CCN(S(=O)(=O)c2cc3ccc(Cl)cc3s2)CC1 [Example A-239, 4-[2-[[4-[(6-Chlorobenzo[b]thien-2-yl)sulfonyl]piperazin-1-yl]carbonyl]thiazol-5-yl]pyridine N-oxide]"
12,3.5,"O=C(CC1CN(S(=O)(=O)c2cc3cc(Cl)ccc3[nH]2)CCN1C(=O)C1CC=C(c2cc[n+]([O-])cc2)CC1)N1CCCCC1 (stereo not shown) [Example A-259, 4-[4-[[4-[(5-Chloroindol-2-yl)sulfonyl]-2-[(piperidin-1-yl)carbonylmethyl]piperazin-1-yl]carbonyl]-1-cyclohexen-1-yl]pyridine N-oxide]"
13,10,"CN(C)C(=O)C[C@@H]1CN(S(=O)(=O)c2cc3ccc(Cl)cc3s2)C[C@H](CC(=O)N(C)C)N1C(=O)c1ncc(-c2cc[n+]([O-])cc2)cn1 [Example A-279, 4-[2-[[2,cis-6-Bis[(N,N-dimethylcarbamoyl)methyl]-4-[(6-chlorobenzo[b]thien-2-yl)sulfonyl]piperazin-1-yl]carbonyl]pyrimidin-5-yl]pyridine N-oxide]"
14,1.9,"O=C(CC1CN(S(=O)(=O)c2cc3ccc(Cl)cc3s2)CCN1C(=O)c1ncc(-c2cccc[n+]2[O-])cn1)NC1CC1 (stereo not shown) [Example A-293, 2-[2-[[4-[(6-Chlorobenzo[b]thien-2-yl)sulfonyl]-2-[(N-cyclopropylcarbamoyl)methyl]piperazin-1-yl]carbonyl]pyrimidin-5-yl]pyridine N-oxide]"

# Further lines, the compound ahead of its results:
row,Compound,IC50 [nM]
1,1-[(5-Chloroindol-2-yl)sulfonyl]-4-[4-methyl-2-(pyridin-4-yl)thiazol-5-yl]piperazine [Example A-296],1.3
2,4-[(6-Chlorobenzo[b]thien-2-yl)sulfonyl]-2-(hydroxymethyl)-1-[5-(pyridin-4-yl)pyrimidin-2-yl]piperazine hydrochloride [Example A-277],2.7
3,"O=C(c1ccc(-c2ccncc2)cc1)N1CCN(S(=O)(=O)c2ccc3cc(Cl)ccc3c2)CC1 [Example A-1, 1-[(6-Chloronaphthalen-2-yl)sulfonyl]-4-[4-(pyridin-4-yl)benzoyl]piperazine hydrochloride]",123
4,"O=C(c1cnccc1-c1ccncc1)N1CCN(S(=O)(=O)c2ccc3cc(Cl)ccc3c2)CC1 [Example A-4, hydrochloride]",54
5,"O=C(c1ccc(-c2ccccn2)cc1)N1CCN(S(=O)(=O)c2ccc3cc(Cl)ccc3c2)CC1 [Example A-17, 1-[(6-Chloronaphthalen-2-yl)sulfonyl]-4-[4-(pyridin-2-yl)benzoyl]piperazine hydrochloride]",180
6,"Cc1c(S(=O)(=O)N2CCN(C(=O)c3ccc(-c4ccncc4)cc3)CC2)sc2ccc(Cl)cc12 [Example A-83, 1-[(5-Chloro-3-methylbenzo[b]thien-2-yl)sulfonyl]-4-[4-(piridin-4-yl)benzoyl]piperazine]",2800
7,"O=C(c1ccc(-c2ccncc2)cc1)N1CCN(S(=O)(=O)c2cc3cc(Cl)ccc3o2)CC1 [Example A-85, 1-[(5-Chlorobenzo[b]furan-2-yl)sulfonyl]-4-[4-(pyridin-4-yl)benzoyl]piperazine]",1000
8,"O=C(c1ccc(-c2ccncc2)cc1)N1CCN(S(=O)(=O)c2cc3ccc(Cl)cc3o2)CC1 [Example A-86, 1-[(6-Chlorobenzo[b]furan-2-yl)sulfonyl]-4-[4-(pyridin-4-yl)benzoyl]piperazine]",> 10000
9,"O=C(c1ccc(-c2ccccn2)cc1)N1CCN(S(=O)(=O)c2cc3cc(Cl)ccc3[nH]2)CC1 [Example A-90, 1-[(5-Chloroindol-2-yl)sulfonyl]-4-[4-(pyridin-2-yl)benzoyl]piperazine hydrochloride]",16
10,"Cn1c(S(=O)(=O)N2CCN(C(=O)c3ccc(-c4ccncc4)cc3)CC2)cc2cc(Cl)ccc21 [Example A-91, 1-[(5-Chloro-1-methylindol-2-yl)sulfonyl]-4-[4-(pyridin-4-yl)benzoyl]piperazine]",7000
11,"O=C(c1ccc(-c2ccncc2)cc1)N1CCN(S(=O)(=O)c2cc3cc(Cl)ccc3s2)CC1 [Example A-96, 1-[(5-Chlorobenzo[b]thien-2-yl)sulfonyl]-4-[4-(pyridin-4-yl)benzoyl]piperazine hydrochloride]",450
12,"O=C(c1ccc(-c2ccncc2)cc1)N1CCN(S(=O)(=O)c2cc3ccc(Cl)cc3s2)CC1 [Example A-97, 1-[(6-Chlorobenzo[b]thien-2-yl)sulfonyl]-4-[4-(pyridin-4-yl)benzoyl]piperazine hydrochloride]",82
13,"O=C(c1ccc(-c2ccccn2)cc1)N1CCN(S(=O)(=O)c2cc3ccc(Cl)cc3s2)CC1 [Example A-98, 1-[(6-Chlorobenzo[b]thien-2-yl)sulfonyl]-4-[4-(pyridin-2-yl)benzoyl]piperazine hydrochloride]",125
14,"O=C(c1ccc(-c2ccncc2)cc1)N1CCN(S(=O)(=O)c2cc3cc(Cl)ccc3[nH]2)CC1 [Example A-101, 1-[(5-Chloroindol-2-yl)sulfonyl]-4-[4-(pyridin-4-yl)benzoyl]piperazine]",9.5
15,"O=C(c1ccc(-c2cc[n+]([O-])cc2)cc1)N1CCN(S(=O)(=O)c2cc3ccc(Cl)cc3[nH]2)CC1 [Example A-106, 4-[4-[[4-[(6-Chloroindol-2-yl)sulfonyl]piperazin-1-yl]carbonyl]phenyl]pyridine N-oxide]",420
16,"O=C(c1ccc(-c2cc[n+]([O-])cc2)cc1)N1CCN(S(=O)(=O)c2cc3cc(Cl)ccc3[nH]2)CC1 [Example A-107, 4-[4-[[4-[(5-Chloroindol-2-yl)sulfonyl]piperazin-1-yl]carbonyl]phenyl]pyridine N-oxide]",4.7
17,"O=C(c1ccc(-c2cc[n+]([O-])cc2)cc1)N1CCN(S(=O)(=O)c2cc3ccc(Cl)cc3s2)CC1 [Example A-116, 4-[4-[[4-[(6-Chlorobenzo[b]thien-2-yl)sulfonyl]piperazin-1-yl]carbonyl]phenyl]pyridine N-oxide]",8.6
18,"C#Cc1ccc2[nH]c(S(=O)(=O)N3CCN(C(=O)c4ccc(-c5cc[n+]([O-])cc5)cc4)CC3)cc2c1 [Example A-120, 4-[4-[[4-[(5-Ethynylindol-2-yl)sulfonyl]piperazin-1-yl]carbonyl]phenyl]pyridine N-oxide]",14
19,"NC(=O)CC1CN(S(=O)(=O)c2cc3cc(Cl)ccc3[nH]2)CCN1C(=O)c1ccc(-c2ccncc2)cc1 (stereo not shown) [Example A-130, 2-Carbamoylmethyl-4-[(5-chloroindol-2-yl)sulfonyl]-1-[4-(pyridin-4-yl)benzoyl]piperazine]",3.6
20,"O=C(c1cnc(-c2ccncc2)nc1)N1CCN(S(=O)(=O)c2cc3cc(Cl)ccc3[nH]2)CC1 [Example A-131, 1-[(5-Chloroindol-2-yl)sulfonyl]-4-[[2-(pyridin-4-yl)pyrimidin-5-yl]carbonyl]piperazine]",19
